# Laboratory results reported in patent US7358235B2, “Analogs of nitrobenzylthioinosine” (Gruenenthal GmbH, priority 2002, dated 2008).
# “Also recorded” adds a separate entry of the source. Where two headings read alike, the source gives them in different places. Marks after values point to notes of the source that are not given here.
# Experiments:
# [1] = target: T1, nucleoside transport protein (Homo sapiens, UniProt Q99808); test: [3H]NBTI radioligand binding assay on human erythrocyte membranes; conditions: for affinity / activity in words: comparison within the series, [3H]NBTI binding
# T1 construct: tissue Blood Bank, Leiden University Medical Center; host or cells: human erythrocyte membranes (ghosts) from whole human blood
# T1 sequence (Q99808 1-456): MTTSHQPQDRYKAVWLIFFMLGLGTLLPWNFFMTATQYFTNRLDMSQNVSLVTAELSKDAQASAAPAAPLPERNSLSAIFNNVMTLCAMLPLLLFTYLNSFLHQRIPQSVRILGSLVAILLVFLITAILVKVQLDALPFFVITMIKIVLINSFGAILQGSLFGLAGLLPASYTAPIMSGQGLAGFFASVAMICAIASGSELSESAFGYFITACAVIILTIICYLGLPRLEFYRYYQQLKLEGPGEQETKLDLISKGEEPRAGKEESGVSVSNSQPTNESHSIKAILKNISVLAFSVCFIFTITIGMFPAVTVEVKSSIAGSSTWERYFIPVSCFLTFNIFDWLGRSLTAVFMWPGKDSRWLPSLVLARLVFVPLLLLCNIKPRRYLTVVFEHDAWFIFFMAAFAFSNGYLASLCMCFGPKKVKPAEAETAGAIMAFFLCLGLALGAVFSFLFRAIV
# Experimental: All final products were tested in a radioligand binding assay.
# Erythrocytes and membrane preparation. Whole human blood (Blood Bank, Leiden University Medical Center) was stirred in lysis buffer (½ v/v, 10 mM MgCl2 in 10 mM Tris HCl, pH 8.0 at 25° C.) for 1 h. After homogenization it was centrifuged for 50 min at 19,000 rpm. The supernatant was removed and the pellet was dissolved in ice-cold water and centrifuged again for 50 min. This procedure was repeated two more times. After removal of the last supernatant 25 mL of buffer (50 mM Tris HCl, pH 7.4 at 25° C.) was added to the final pink pellet. This suspension was homogenized and the ghosts were collected. Aliquots were stored at −80° C. until further use.
# Saturation and displacement equilibrium NBTI binding to membranes prepared from human erythrocytes (ghosts) was determined at 25° C. based on a method previously described.
# [2] = inhibition of equilibrium binding of [3H]NBTI, Table 1, read-out: Ki(nM), affinity for the nucleoside transport protein on human erythrocyte membranes
# [3] = human erythrocyte membranes, [3H]NBTI 1.5 nM, 30 minutes at 25° C., Tris.HCl pH 7.4, read-out: Binding (Nucleoside Transporter (Ki))
SMILES,"Ki [1, 2]","Ki [1, 3]",affinity / activity in words [1],further results
OC[C@H]1O[C@@H](n2cnc3c(SCc4cc(Cl)cc5nonc45)ncnc32)[C@H](O)[C@@H]1O [Compound 16],25 nM,,,
"OCC1OC(n2cnc3c(SCc4ccc5nsc(Br)c5c4)ncnc32)C(O)C1O (stereo not drawn) [Example 2, 2-[6-(3-Bromo-benzo[c]isothiazol-5-ylmethylsulfanyl)-purin-9-yl]-5-hydroxymethyl-tetrahydro-furan-3,4-diol]",42 nM,,,
"OCC1OC(n2cnc3c(SCc4ccc5nonc5c4)ncnc32)C(O)C1O (stereo not drawn) [Example 3, 2-[6-(Benzo[1,2,5]oxadiazol-5-ylmethylsulfanyl)-purin-9-yl]-5-hydroxymethyl-tetrahydro-furan-3,4-diol]",1.5 nM,,,
OCC1OC(n2cnc3c(SCc4cccc5nonc45)ncnc32)C(O)C1O (stereo not drawn) [Example 4],9.7 nM,,,
"OCC1OC(n2cnc3c(SCc4cccc5conc45)ncnc32)C(O)C1O (stereo not drawn) [Example 7, 2-[6-(Benzo[c]isoxazol-7-ylmethylsulfanyl)-purin-9-yl]-5-hydroxy methyl-tetrahydro-furan-3,4-diol]",666 nM,,,
"OCC1OC(n2cnc3c(SCc4ccc5nsc(Br)c5c4)ncnc32)C(O)C1O (stereo not drawn) [Example 10, 2-[6-(3-Bromo-benzo[c]isothiazol-5-ylmethylsulfanyl)-purin-9-yl]-5-hydroxymethyl-tetra hydro-furan-3,4-diol]",,42 nM,,
"OCC1OC(n2cnc3c(SCc4ccc5nc[nH]c5c4)ncnc32)C(O)C1O (stereo not drawn) [Example 11, 2-[6-(3H-Benzoimidazol-5-ylmethylsulfanyl)-purin-9-yl]-5-hydroxymethyl-tetra hydro-furan-3,4-diol]",191 nM,191 nM,,
"OCC1OC(n2cnc3c(SCc4cccc5nc[nH]c45)ncnc32)C(O)C1O (stereo not drawn) [Example 12, 2-[6-(3H-Benzoimidazol-4-ylmethylsulfanyl)-purin-9-yl]-5-hydroxymethyl-tetrahydro-furan-3,4-diol]",,,,"Percentage of displacement at concentration of 10 μM ([1]; 10 μM, [3H]NBTI, human erythrocyte membranes): 42%*; Binding (Nucleoside Transporter), percentage at 10 μM ([1]; 10 μM, human erythrocyte membranes, [3H]NBTI): 42%"
"O=[N+]([O-])c1ccc(CSc2ncnc3c2ncn3C2CCCO2)cc1 (stereo not drawn) [Example 14, 6-(4-Nitro-benzylsulfanyl)-9-(tetrahydro-furan-2-yl)-9H-purine]",937 nM,937 nM,,
"O=[N+]([O-])c1ccc(CSc2ncnc3c2ncn3C2CCCCO2)cc1 (stereo not drawn) [Example 15, 6-(4-Nitro-benzylsulfanyl)-9-(tetrahydro-pyran-2-yl)-9H-purine]",1200 nM,1200 nM,,
"O=[N+]([O-])c1ccc(CSc2ncnc3c2ncn3CCCCOC2CCCCO2)cc1 (stereo not drawn) [Example 16, 6-(4-Nitro-benzylsulfanyl)-9-[4-(tetrahydro-pyran-2-yloxy)-butyl]-9H-purine]",488 nM,488 nM,did not improve the binding affinity,
"O=[N+]([O-])c1ccc(CSc2ncnc3c2ncn3CCCCO)cc1 [Example 17, 4-[6-(4-Nitro-benzylsulfanyl)-purin-9-yl]-butan-1-ol]",1140 nM,1140 nM,,
OCC1OC(n2cnc3c(SCc4ccc5nsc(Br)c5c4)ncnc32)C(O)C1O (stereo not drawn) [Example 31],,,,"affinity gain ([1]; bromination of 28 to yield 31): 2.6 fold; Ki ([1]; human erythrocyte membranes, [3H]NBTI, read-out: Ki): 42 nM"
OCC1OC(n2cnc3c(SCc4cccc5nc[nH]c45)ncnc32)C(O)C1O (stereo not drawn) [Example 38],,,negative effect on affinity; also recorded: reduced affinity when compared to their counterparts,
O=[N+]([O-])c1ccc(CSc2ncnc3c2ncn3C2CCCO2)cc1 (stereo not drawn) [Example 43],,,decrease in activity compared to compound 53,
O=[N+]([O-])c1ccc(CSc2ncnc3c2ncn3C2CCCCO2)cc1 (stereo not drawn) [Example 44],,,decrease in activity compared to compound 53,
O=[N+]([O-])c1ccc(CSc2ncnc3c2ncn3C2CCCC2)cc1 [Example 48],,,decrease in activity compared to a simple n-butyl substituent,

# Now from value to molecule, other results behind:
"Ki [1, 2]","Ki [1, 3]",affinity / activity in words [1],SMILES,further results
736 nM,736 nM,,"O=[N+]([O-])c1ccc(CSc2ncnc3c2ncn3C2CCCC2)cc1 [Example 18, 9-Cyclopentyl-6-(4-nitro-benzylsulfanyl)-9H-purine]",
238 nM,238 nM,,"CCCCn1cnc2c(SCc3ccc([N+](=O)[O-])cc3)ncnc21 [Example 19, 9-Butyl-6-(4-nitro-benzylsulfanyl)-9H-purine]",
5600 nM,5600 nM,,"CCCCn1cnc2c(SCc3cccc4nonc34)ncnc21 [Example 20, 6-(Benzo[1,2,5]oxadiazol-4-ylmethylsulfanyl)-9-butyl-9H-purine]",
3100 nM,3100 nM,,"CCCCn1cnc2c(SCc3ccc4nscc4c3)ncnc21 [Example 21, 6-(Benzo[c]isothiazol-5-ylmethylsulfanyl)-9-butyl-9H-purine]",
682 nM,682 nM,,"CCCCn1cnc2c(SCc3ccc4nsc(Br)c4c3)ncnc21 [Example 22, 6-(3-Bromo-benzo[c]isothiazol-5-ylmethylsulfanyl)-9-butyl-9H-purine]",
670 nM,670 nM,decrease in affinity,"OCC1OC(n2cnc3c(SCc4ccccc4)cc(Cl)nc32)C(O)C1O (stereo not drawn) [Example 23, 2-(7-Benzylsulfanyl-5-chloro-imidazo[4,5-b]pyridin-3-yl)-5-hydroxymethyl-tetrahydro-furan-3,4-diol]",
47 nM,47 nM,decrease in affinity,"O=[N+]([O-])c1ccc(CSc2cc(Cl)nc3c2ncn3C2OC(CO)C(O)C2O)cc1 (stereo not drawn) [Example 24, 2-[5-Chloro-7-(4-nitro-benzylsulfanyl)-imidazo[4,5-b]pyridin-3-yl]-5-hydroxymethyl-tetrahydro-furan-3,4-diol]",increase of affinity relative to 60 ([1]; introduction of a nitro group): approx. tenfold
,130 nM,,"O=[N+]([O-])c1ccc(CSc2ncnc3c2ncn3CCCO)cc1 [Example 25, 3-[6-(4-Nitro-benzylsulfanyl)-purin-9-yl]-propan-1-ol]",
,135 nM,,"O=[N+]([O-])c1ccc(CSc2ncnc3c2ncn3Cc2ccccc2)cc1 [Example 26, 9-Benzyl-6-(4-nitro-benzylsulfanyl)-9H-purine]",melting point: 139 °C
,12 nM,,"OCC1OC(n2cnc3c(SCCc4ccccc4)ncnc32)C(O)C1O (stereo not drawn) [Example 27, 2-Hydroxymethyl-5-(6-phenethylsulfanyl-purin-9-yl)-tetrahydro-furan-3,4-diol]",
,,negative effect on affinity,OCC1OC(n2cnc3c(SCc4ccc5nc[nH]c5c4)ncnc32)C(O)C1O (stereo not drawn) [Example 37],
,,higher affinity,O=[N+]([O-])c1ccc(CSc2ncnc3c2ncn3CCCCOC2CCCCO2)cc1 (stereo not drawn) [Example 46],
